Series [1] relates to HEK293. Put plainly: Cytotoxicity against human HEK293 cells assessed as cell viability at 20 uM measured after 24 hrs by MTT assay. It is filed as toxicity, cell-based. Conditions: hek293, 24 h. (Formazan colour is commonly taken as a measure of viable cells.)
Series [2] addresses T1, NAD-dependent protein deacetylase sirtuin-1 (Homo sapiens) (UniProt Q96EB6).
T1 sequence (whole entry): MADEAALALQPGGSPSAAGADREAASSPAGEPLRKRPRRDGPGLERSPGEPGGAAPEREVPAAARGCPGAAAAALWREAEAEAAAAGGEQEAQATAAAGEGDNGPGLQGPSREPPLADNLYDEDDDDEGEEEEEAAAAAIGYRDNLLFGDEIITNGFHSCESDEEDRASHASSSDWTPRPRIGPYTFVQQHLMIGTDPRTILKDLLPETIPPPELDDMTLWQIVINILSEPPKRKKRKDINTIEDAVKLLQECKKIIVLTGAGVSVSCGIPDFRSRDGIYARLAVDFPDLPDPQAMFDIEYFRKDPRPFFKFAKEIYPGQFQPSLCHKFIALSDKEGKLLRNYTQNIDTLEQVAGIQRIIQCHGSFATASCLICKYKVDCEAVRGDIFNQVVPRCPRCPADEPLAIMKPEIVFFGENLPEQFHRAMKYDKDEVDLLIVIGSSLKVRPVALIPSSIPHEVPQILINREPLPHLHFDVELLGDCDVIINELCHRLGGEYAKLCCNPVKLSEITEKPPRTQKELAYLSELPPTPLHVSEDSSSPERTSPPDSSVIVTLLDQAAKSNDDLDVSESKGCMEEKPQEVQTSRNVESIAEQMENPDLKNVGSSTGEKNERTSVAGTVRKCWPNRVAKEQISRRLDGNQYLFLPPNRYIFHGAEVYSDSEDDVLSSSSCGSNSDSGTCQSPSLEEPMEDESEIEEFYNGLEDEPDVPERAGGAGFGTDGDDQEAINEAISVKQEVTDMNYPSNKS
Briefly: Activation of SIRT1 (unknown origin) expressed in human HEK293 cells assessed as decrease in p53 transcriptional activity at 20 uM measured after 24 hrs by luciferase reporter gene assay. It is filed as cell-based. The settings on record: filed as activator.

The subject of series [3] is C2C12. Put plainly: Effect on AMPK in mouse C2C12 myotubes assessed as increase in AMPK-alpha phosphorylation at Thr172 at 1 mM measured after 1 hrs by western blot analysis. It is filed as functional, cell-based. On the technique in general: In western blotting, separated proteins are transferred to a membrane and probed.
Series [4] deals with T1, NAD-dependent protein deacetylase sirtuin-1 (Homo sapiens). Briefly: Activation of SIRT1 (unknown origin) expressed in human HEK293 cells assessed as increase intracellular NAD+ level at 10 uM in presence of NAD+ as substrate incubated for 12 hrs by NAD+/NADH assay based fluorescence microplate reader. In kind it is cell-based. The settings on record: filed as activator.

The target is the same in series [5]. Briefly: Activation of SIRT1 (unknown origin) expressed in human HEK293 cells assessed as decrease in luciferase activity at 5 uM measured after 24 hrs by luciferase reporter gene assay. In kind it is cell-based. The settings on record: filed as activator.
Series [6] shares this target. Briefly: Activation of SIRT1 (unknown origin) expressed in human HEK293 cells assessed as increase intracellular NAD+ level at 20 uM in presence of NAD+ as substrate incubated for 12 hrs by NAD+/NADH assay based fluorescence microplate reader. The settings on record: filed as activator. In kind it is cell-based.
Series [7] has the same target. Briefly: Activation of SIRT1 (unknown origin) expressed in human HEK293 cells assessed as increase in deacetylase activity from 1.25 to 20 uM measured after 24 hrs by luciferase reporter gene assay. The settings on record: filed as activator, dose 1.25-20 µM. It is filed as cell-based.
Series [8] relates to C2C12. Put plainly: Effect on AMPK in mouse C2C12 myotubes assessed as increase in AMPK-alpha phosphorylation at Thr172 at 5 to 10 uM measured after 1 hrs by western blot analysis. It is filed as functional, cell-based. Conditions: dose 5-10 µM.
Series [9] deals with C2C12. Put plainly: Cytotoxicity against mouse C2C12 myotubes assessed as cell viability at 10 to 40 uM measured after 24 hrs by MTT assay. It is filed as toxicity, cell-based. Conditions: c2c12, 24 h, dose 10-40 µM.
Series [10] has as its target T1, NAD-dependent protein deacetylase sirtuin-1 (Homo sapiens). Put plainly: Activation of SIRT1 (unknown origin) expressed in human HEK293 cells assessed as decrease in luciferase activity at 20 uM measured after 24 hrs by luciferase reporter gene assay. It is filed as cell-based. The settings on record: filed as activator. (In a reporter assay the amount or activity of a reporter protein is the signal.)

For series [11] the target is unchanged. Briefly: Activation of SIRT1 (unknown origin) expressed in human HEK293 cells assessed as increase in NAD+/NADH ratio at 10 to 40 uM in presence of NAD+ as substrate incubated for 12 hrs by NAD+/NADH assay based fluorescence microplate reader. It is filed as cell-based. Conditions: filed as activator, dose 10-40 µM.

Activity calls are given as the source filed them. No cut-off for these calls is given here.

Drawing on ChEMBL document CHEMBL5046261, “Flavonostilbenes Isolated from the Stems of Rhamnoneuron balansae as Potential SIRT1 Activators” (J Nat Prod, 2022), this text covers Activity for 13 compounds.

On to `O=c1c(O)c(-c2ccc(O)cc2)oc2cc3c(c(O)c12)[C@@H](c1cc(O)cc(O)c1)[C@H](c1ccc(O)cc1)O3`, for which the Activity entry in series [1] is “Non-Toxic”.

As for `O=C1c2c(O)cc3c(c2O[C@@H](c2ccc(O)cc2)[C@@H]1O)[C@H](c1cc(O)cc(O)c1)[C@@H](c1ccc(O)cc1)O3`, in [1], the Activity entry is on record as “Non-Toxic”.

Consider `O=c1c(O)c(-c2ccc(O)cc2)oc2cc3c(c(O)c12)[C@@H](c1cc(O)cc(O)c1)[C@@H](c1ccc(O)cc1)O3`, for which the Activity result in series [1] is on record as “Non-Toxic”.

For the compound `O=c1c(O)c(-c2ccc(O)cc2)oc2c(-c3cc(/C=C/c4cc(O)cc(O)c4)ccc3O)c(O)cc(O)c12`, in [2], the result was Active. For the same compound, the Activity result in [1] is “Non-Toxic”.

On to `O=c1c(O)c(-c2ccc(O)c(O)c2)oc2cc3c(c(O)c12)[C@@H](c1cc(O)cc(O)c1)[C@H](c1ccc(O)cc1)O3`, for which the Activity entry in [1] is reported as “Non-Toxic”.

As for `NC(=O)c1ncn([C@@H]2O[C@H](CO)[C@@H](O)[C@H]2O)c1N`, in [3], the outcome was Active.

As for `O=c1c(O)c(-c2ccc(O)cc2)oc2cc(O)c(-c3cc(/C=C/c4cc(O)cc(O)c4)ccc3O)c(O)c12`, in series [2], the result was Active. For the same compound, the Activity entry in series [1] is reported as “Non-Toxic”.

In the case of `O=c1c(O)c(-c2cc(O)c(O)c(O)c2)oc2c3c(cc(O)c12)O[C@H](c1ccc(O)cc1)[C@H]3c1cc(O)cc(O)c1`, the Activity entry in [1] was “Non-Toxic”.

On to `O=C1c2c(O)cc(O)c(-c3cc(/C=C/c4cc(O)cc(O)c4)ccc3O)c2O[C@H](c2ccc(O)cc2)[C@H]1O`, for which the result in series [4], in series [5], in series [2], in [6] and in series [8] was Active. Moreover, the results for the Activity entry in [7], in series [1] and in [9] were “Dose-Dependent Effect”, “Non-Toxic” and “Non-Toxic”, respectively.

Consider `O=c1c(O)c(-c2ccc(O)cc2)oc2c3c(cc(O)c12)O[C@@H](c1ccc(O)cc1)[C@H]3c1cc(O)cc(O)c1`, for which, in series [1], the Activity result is listed as “Non-Toxic”.

Take `O=C1c2c(cc(O)c(-c3cc(/C=C/c4cc(O)cc(O)c4)ccc3O)c2O)O[C@H](c2ccc(O)c(O)c2)[C@H]1O`: the outcome in series [2] was Active. In series [1], the Activity result is recorded as “Non-Toxic”.

As for `Oc1ccc(/C=C/c2cc(O)cc(O)c2)cc1`, the outcome in [10] was Active. Also, in [11], the Activity entry was “Dose-Dependent Effect”.

Turning to `O=c1c(O)c(-c2ccc(O)c(O)c2)oc2c(-c3cc(/C=C/c4cc(O)cc(O)c4)ccc3O)c(O)cc(O)c12`, the result in series [2] was Active. Besides, the Activity entry in series [1] is “Non-Toxic”.
